# According to EP0703776B1, “UTILIZATION OF A PEPTIDE HAVING A LYSIN GROUP AND AN ALANINE GROUP IN THE TERMINAL POSITION FOR THE PREPARATION OF A DEPIGMENTING COMPOSITION, AND DEPIGMENTING COMPOSITION THUS OBTAINED” (PARFUMS CHRISTIAN DIOR, priority 1993, dated 1997):
# No end group written: not given here.
# Tested on: tyrosinase de champignon
# Test: Tyrosinase inhibition (kinetics of dopaquinone formation at 480 nm, substrates L-tyrosine + L-dopa)
# Type: biochemical
substance,measurement,setting,value
"KCTCCA (cysteine pairing not given here) [hexapeptide, commercialement disponible chez Sigma, France]",pourcentage d'inhibition de la tyrosinase,"peptide 5.10^-3 M, series T0 (substrates added at time T0)",98%
same,pourcentage d'inhibition de la tyrosinase,"peptide 5.10^-4 M, series T 15 min (substrates added 15 min after mixing peptide and tyrosinase)",98%
same,effet d'inhibition de la tyrosinase,"peptide 5.10^-6 M, result in words",déjà très significative
